Where a SMILES comes first, the peptide text is derived from it.
Experiments:
BMS cell growth = test: Cytotoxicity assay for concentrations not affecting apparent BMS cell growth; type: cell-based, Zea mays
Protocol: (§1) To determine the effect of the flagellin peptide flg22 ([…] (SEQ ID NO: 14) (AnaSpec AS-62633) on PMP production by Zea mays BMS cells, 200 mL of BMS cell culture were prepared as described above. A cytotoxicity assay was carried out to determine the range of concentrations of flg22 that would not affect apparent BMS cell growth, and the flg22 concentration of 1 μM was determined to be compatible with cell growth. 30 mL of BMS cell suspension was distributed in individual 125 mL conical culture vented-flasks. In parallel, 89.55 mL of fresh media was mixed with 450 μL of 400 μM flg22 peptide suspension prepared in ultrapure sterile water to a final concentration of 2 μM. For the control conditions, 450 μL of ultrapure sterile water was added instead of flg22. Then, 30 mL of the media/flg22 or media/water mix was added to each flask containing 30 mL cell suspension (1:1 v/v) to a flg22 final concentration of 1 μM. Biological triplicates were performed for both flg22 treatment and control conditions. Control cells and cells treated with flg22 were grown at 24° C. with agitation (110 rpm) for 96 hours.
To determine the effect of salicylic acid (SA) on PMP production by Zea mays BMS cells, 200 mL of BMS cell culture were prepared as described above. […] 30 mL of BMS cell suspension was distributed into individual 125 mL conical culture vented-flasks. […]

Zea mays BMS cells = test: PMP production by Zea mays BMS cell culture after elicitation (NanoFCM); type: cell-based; details: 100 μM salicylic acid, 96 hours
Protocol: Zea mays, Black Mexican Sweet (BMS) cells were purchased from the ABRC. BMS cells were grown in Murashige and Skoog basal medium pH 5.8, containing 4.3 g/L Murashige and Skoog Basal Salt Mixture (Sigma M5524), 2% sucrose (S0389, Millipore Sigma), 2 mg/L 2,4-dichlorophenoxyacetic acid (D7299, Millipore Sigma), 250 ug/L thiamine HCL (V-014, Millipore Sigma) and a 1× MS vitamin mix solution in ddH2O. The 1× vitamin mix solution contained niacin (N0761-100G, Millipore Sigma), pyroxidine hydrochloride (P6280-25G, Millipore Sigma), D-pantothenic acid hemicalcium salt (P5155-100G, Millipore Sigma), L-Asparagine (A4159-25G, Millipore Sigma), and myo-inositol (17508-100G, Millipore Sigma) at respective final concentrations of 1.3 mg/L, 250 μg/L, 250 μg/L, 130 mg/L, and 200 mg/L. Cells were grown in 1 L vented conical sterile flasks in dark conditions at 24° C. with agitation (110 rpm). For experiments, BMS cells were grown until cells were at a packed cell volume (PCV) of 20%. The PCV estimates cell density and is defined as the volume of cells divided by the total volume of the cell culture aliquot. The Packed Cell Volume is expressed as a percentage. The PCV was determined as follows: 5 mL of BMS cell suspension was centrifuged for 5 min at 3900 rpm, and the volume of the cell pellet was determined.
as §1, with “Then, 30 mL of the media/flg22 or media/water mix was added to each flask containing 30 mL cell suspension (1:1 v/v) to a flg22 final concentration of 1 μM. Biological triplicates were performed for both flg22 treatment and control conditions. Control cells and cells treated with flg22 were grown at 24° C. with agitation (110 rpm) for 96 hours.” left out

[1] = test system: tomato plants grown in hydroponic culture; test: PMP production by tomato plants grown in hydroponic culture after salicylic acid treatment; type: in vivo, Solanum lycopersicum
Protocol: Seeds of tomato (Solanum lycopersicum) cultivar Moneymaker were sterilized as follows: 70% ethanol for 3 min, 50% household bleach with 0.1% Triton X-100 (Sigma) for 20 min, washed three times with sterile deionized water. Sterilized seeds were germinated on moistened filter paper (Whatman®) in sterile Petri dishes sealed with medical tape (3M) and placed in a plant growth incubator (16 hr light, 23 C/21 C day/night) for seven days. Clear, square, pre-sterilized plastic containers (PhytoTech Labs) were assembled into hydroponic containers similar to what was previously described (Alatorre-Cobos et al., BMC Plant Biol., 14: Article No.: 69, 2014; FIG. 8A). Two containers were cut with sterile scalpels to assemble a support for a sterile polytetrafluoroethylene (PTFE) plastic mesh (McMaster-Carr). Plastic mesh was fixed to plastic supports with sterile staples. Small openings were cut into the plastic mesh and germinated seedlings threaded through the openings using sterile forceps. Each mesh supported five seedlings. 200 mL 1×MS growth medium (Murashige & Skoog basal salt mixture (Sigma) 4.3 g/L, sucrose 10 g/L, MES (Sigma) 0.5 g/L, pH 5.8 adjusted with KOH) was added to a whole plastic container serving as the base. Plastic support with mesh and threaded seedlings was placed into the base container. A second whole plastic container with a cut 2 cm^2 opening and sealed with medical tape was used as the lid. The two halves were sealed with medical tape and the containers transferred to a plant incubator (16 hr light, 23° C./21° C. day/night) for three weeks. […]
Culture medium (180 mL per container) was collected and centrifuged at 4,000×g for 30 min to pellet debris. […] Pellets were resuspended in 200 μL 1×PBS, pH 7.4 and analyzed using nano flow-cytometry (NanoFCM). PMP concentration (treatment: 4.06×10^11±1.41×10^11 PMP/mL (SEM); control: 5.44×10^10±2.49×10^10 PMP/mL (SEM)) and PMP size (treatment: 97±25 nm (SD); control: 82±27 nm (SD)) were determined by NanoFCM using concentration and size standards provided by the manufacturer (FIG. 8B).

## CC[C@H](C)[C@H](NC(=O)[C@H](CCC(N)=O)NC(=O)[C@H](CC(C)C)NC(=O)CNC(=O)[C@H](C)NC(=O)[C@H](C)NC(=O)[C@H](CC(=O)O)NC(=O)[C@H](CC(=O)O)NC(=O)[C@H](CCCCN)NC(=O)[C@H](C)NC(=O)[C@H](CO)NC(=O)[C@H](CC(N)=O)NC(=O)[C@@H](NC(=O)[C@H](CCCNC(=N)N)NC(=O)[C@H](CO)NC(=O)CNC(=O)[C@@H](NC(=O)[C@H](CO)NC(=O)[C@H](CC(C)C)NC(=O)[C@H](CCCNC(=N)N)NC(=O)[C@@H](N)CCC(N)=O)[C@@H](C)O)[C@@H](C)CC)C(=O)N[C@@H](C)C(=O)O [flg22] (H-QRLSTGSRINSAKDDAAGLQIA-OH)
BMS cell growth; Zea mays BMS cells
  concentration compatible with cell growth: 1 µM

## O=C(O)c1ccccc1O [salicylic acid]
Zea mays BMS cells
  effect on production of PMPs by BMS cells in culture: stimulates the production of PMPs
Zea mays BMS cells; BMS cells, average of triplicates, DMSO control 1.47×10^11 PMP/mL
  PMP concentration: 1.84×10^11 PMP/mL
Zea mays BMS cells; BMS cells, control 87±15 nm
  mean PMP size: 86.5±15 nm
BMS cell growth; Zea mays
  concentration compatible with cell growth: 100 µM
[1]; 1 mM salicylic acid for three days, ± SD, control 82±27 nm
  PMP size: 97±25 nm
[1]; hydroponically grown tomato, 1 mM salicylic acid
  effect on secretion of PMPs from the plant roots: enhance secretion of PMPs from the plant roots
[1]; three-week-old tomato plants, 1 mM salicylic acid for three days, ± SEM, n=2, DMSO control 5.44×10^10±2.49×10^10
  PMP concentration: 4.06×10^11±1.41×10^11 PMP/mL

From patent publication US11827897B2, “Agricultural compositions and related methods” (Flagship Pioneering Innovations VI, LLC, priority 2018, dated 2023)
